Earlier results on one compound are cited in patent US11197880B2, “Use of eriocitrin compositions for increasing GLP-1 levels” (INGREDIENTS BY NATURE, LLC, priority 2019, dated 2021).

This series has as its system mice (C57BL/6J).
Where [1] appears, read: mice (C57BL/6J), eriocitrin 140 mg/kg/day.
The mark [2] stands for this setting: mice supplemented with eriocitrin, previous study.

Consider `C[C@@H]1O[C@@H](OC[C@H]2O[C@@H](Oc3cc(O)c4c(c3)O[C@H](c3ccc(O)c(O)c3)CC4=O)[C@H](O)[C@@H](O)[C@@H]2O)[C@H](O)[C@H](O)[C@H]1O` [Eriocitrin, eriodictyol 7-O-B-rutinoside], for which, under setting [1], the “inflammatory markers (IL-6 and MCP-1)” value was “decreased inflammatory markers”; the total antioxidant capacity result is recorded as “increased total antioxidant capacity”. Under setting [2], the blood glucose result is given as “reduced blood glucose” and the insulin sensitivity entry is reported as “improved insulin sensitivity”.
